pKi: −log10 of the molar value.
What was measured:
Carbonic anhydrase 9 = Carbonic anhydrase 9 (Homo sapiens, UniProt Q16790)
Carbonic anhydrase 4 = biological target: T1, Carbonic anhydrase 4 (Bos taurus, UniProt Q95323)
T1 sequence (Q95323 whole entry): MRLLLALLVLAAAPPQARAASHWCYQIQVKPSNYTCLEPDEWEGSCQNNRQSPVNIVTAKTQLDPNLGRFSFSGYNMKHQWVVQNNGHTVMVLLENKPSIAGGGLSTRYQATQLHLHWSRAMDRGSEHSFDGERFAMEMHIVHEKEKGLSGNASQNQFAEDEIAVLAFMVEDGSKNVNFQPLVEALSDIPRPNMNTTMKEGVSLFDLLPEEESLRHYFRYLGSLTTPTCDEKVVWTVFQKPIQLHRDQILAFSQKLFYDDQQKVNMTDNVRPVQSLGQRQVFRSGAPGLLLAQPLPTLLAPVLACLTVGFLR

Carbonic anhydrase 1 = Carbonic anhydrase 1 (Homo sapiens, UniProt P00915)
Chain of Carbonic anhydrase 1 (P00915 whole entry): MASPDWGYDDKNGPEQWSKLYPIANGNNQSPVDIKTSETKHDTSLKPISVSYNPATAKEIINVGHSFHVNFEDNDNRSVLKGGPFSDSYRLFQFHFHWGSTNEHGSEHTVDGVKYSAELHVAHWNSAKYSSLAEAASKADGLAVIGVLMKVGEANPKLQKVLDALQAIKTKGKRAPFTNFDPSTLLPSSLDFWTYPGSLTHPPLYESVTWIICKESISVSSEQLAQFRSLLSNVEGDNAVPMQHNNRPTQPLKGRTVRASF

| SMILES | pKi (Carbonic anhydrase 9) | pKi (Carbonic anhydrase 4) | pKi (Carbonic anhydrase 1) |
| --- | --- | --- | --- |
| NS(=O)(=O)c1ccc(CO)cc1 | 7.68 |  |  |
| Nc1cc(C(F)(F)F)c(S(N)(=O)=O)cc1S(N)(=O)=O [2,4-DISULFAMYLTRIFLUOROMETHYLANILINE] |  | 6.81 |  |
| Nc1ccc(S(=O)(=O)NCCc2ccc(S(N)(=O)=O)cc2)cc1 | 7.62 | 7.14 |  |
| Cn1nc(S(N)(=O)=O)sc1=N | 7.52 |  |  |
| Nc1ccc(S(=O)(=O)Nc2ccc(S(N)(=O)=O)cc2)cc1 | 7.47 | 6.89 |  |
| Nc1ccc(S(=O)(=O)NCc2ccc(S(N)(=O)=O)cc2)cc1 |  | 7.14 |  |
| NS(=O)(=O)c1ccc(C(=O)O)cc1 [CARZENIDE] | 7.59 | 7.07 |  |
| NS(=O)(=O)c1ccc(CCO)cc1 | 7.66 |  |  |
| Nc1nccc(Nc2ccc(S(N)(=O)=O)cc2)n1 | 7.80 |  |  |

The remaining lines, values ahead:

| pKi (Carbonic anhydrase 9) | pKi (Carbonic anhydrase 4) | pKi (Carbonic anhydrase 1) | SMILES |
| --- | --- | --- | --- |
| 6.58 |  |  | Nc1ccc(S(N)(=O)=O)cc1Cl |
| 7.48 |  |  | Nc1ccccc1S(N)(=O)=O |
| 7.49 | 6.38 |  | NS(=O)(=O)c1cccc2cccnc12 |
| 6.55 |  |  | Nc1ccc(S(N)(=O)=O)cc1I |
| 6.61 |  |  | Nc1ccc(S(N)(=O)=O)cc1F |
|  | 6.84 | 6.73 | Nc1ccc(S(=O)(=O)Nc2ccccc2S(N)(=O)=O)cc1 |
| 7.52 | 6.36 | 4.64 | NS(=O)(=O)c1cccc2ccccc12 |
